In PMC3467072 (Nucleic Acids Research, 2012):

How the values were obtained:
Format in all cases: binding, Mycobacterium tuberculosis
Rv3066 mutant W80A = system: Rv3066 mutant W80A
Rv3066 mutant N112A = system: Rv3066 mutant N112A
Rv3066 mutant W131A = system: Rv3066 mutant W131A

CC[n+]1c(-c2ccccc2)c2cc(N)ccc2c2ccc(N)cc21 [ethidium, ethidium bromide]
three to four times: Decrease of affinity for ethidium binding, W80A versus wild-type (Rv3066 mutant W80A) | Decrease of affinity for ethidium binding, N112A versus wild-type (Rv3066 mutant N112A) | Decrease of affinity for ethidium binding, W131A versus wild-type (Rv3066 mutant W131A)
